According to PMC9775004 (Biosensors, 2022):
Like-named read-outs stand apart in the source and are kept apart here.

Assays:
FILLac10N0C = test: FRET emission ratio (Venus to mTFP) response of purified FILLac10N0C; type: binding, Salmonella enterica serovar Typhimurium LT2
Experimental: The FILLac expression vectors were constructed based on the plasmid pETDuet-mTFP-Venus carrying mTFP gene and Venus gene. The original STlldR gene, its truncated variants or variants with artificial linkers were inserted between the mTFP gene and Venus gene by T5 exonuclease DNA assembly method (TEDA) to construct pETDuet-FILLac0N0C and its variants.
The purified FILLac and different compounds were diluted with 50 mM Tris-HCl buffer (pH 7.4), and then mixed at a volume ratio of 3:1 into a black 96-well microplate for a total detection volume of 100 μL. The final concentration of FILLac in the reaction mixture was 1 μM. The fluorescence intensities of FILLac at 485 nm (mTFP) and 528 nm (Venus) were detected by using an EnSight multifunctional microplate detector (PerkinElmer, USA) with excitation at 430 nm. […] The maximum ratio changes (ΔRmax) were calculated according to the following formula:(2) ΔRmax=−Rmax−Rmin/Rmin. […]

EcLldR = target: T1, EcLldR (Escherichia coli, UniProt P0ACL7); test: Fluorescence-based thermal shift (FTS) assay with EcLldR; type: binding, E. coli MG1655; conditions: 1 mM compound, 10 μM LldR
T1 construct: His tag (inferred from pET28a and HisTrap purification); made in house; host or cells: E. coli BL21 (DE3)
T1 sequence (P0ACL7 whole entry): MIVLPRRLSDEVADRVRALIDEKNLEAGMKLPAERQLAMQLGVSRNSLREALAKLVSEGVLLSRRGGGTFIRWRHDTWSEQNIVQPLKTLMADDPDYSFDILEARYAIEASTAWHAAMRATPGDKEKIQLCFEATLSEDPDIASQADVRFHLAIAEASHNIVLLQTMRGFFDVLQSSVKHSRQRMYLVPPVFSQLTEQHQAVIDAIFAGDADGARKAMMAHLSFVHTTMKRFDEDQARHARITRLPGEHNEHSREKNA
Experimental: (§1) The gene STlldR encoding LldR of S. Typhimurium LT2 (STLldR) was amplified from genome of the strain, and then ligated into the plasmid pET28a to construct pET28a-STlldR. The recombinant plasmid pET28a-STlldR was transformed into E. coli BL21 (DE3) for STLldR expression. The expression strain was cultured in LB medium at 37 °C until an optical density at 600 nm (OD600) of 0.6 and induced with 1 mM isopropyl-β-D-thiogalactoside (IPTG) at 16 °C for 12 h. […] The purified STLldR was analyzed by 13% sodium dodecyl sulfate-polyacrylamide gel electrophoresis (SDS-PAGE). The protein concentration was determined using a Bradford protein assay kit (Sangon, Shanghai, China), and stored at –80 °C. […]
(§2) FTS assays were performed using a LightCycler 480 system (Roche, Indianapolis, IN, USA) with the filter set to excitation wavelength 465 nm and emission wavelength 580 nm for SYPRO orange. […] The melting temperature (Tm) of LldR was calculated from the negative first derivative value of the raw fluorescence data. Thermal shift temperature (ΔTm) was calculated by subtracting the Tm of the control from the Tm of LldR with the addition of different compounds. […]

PaLldR = test: Fluorescence-based thermal shift (FTS) assay with PaLldR; type: binding, Pseudomonas aeruginosa PAO1; conditions: 1 mM compound, 10 μM LldR
Experimental: as §1, §2

PfLldR = test: Fluorescence-based thermal shift (FTS) assay with PfLldR; type: binding, P. fluorescens A506; conditions: 1 mM compound, 10 μM LldR
Experimental: as §1, §2

O=C(CO)[C@@H](O)[C@H](O)[C@H](O)CO [fructose]
fluorescence emission ratio change of FILLac10N0C (specificity analysis) (FILLac10N0C; 50 μM compound): did not change the emission ratio

[Na+] [Na^+]
fluorescence emission ratio change of FILLac10N0C (specificity analysis) (FILLac10N0C; 50 μM compound): did not change the emission ratio

O=C(O)CCC(=O)O [succinate]
fluorescence emission ratio change of FILLac10N0C (specificity analysis) (FILLac10N0C): did not change the emission ratio

O=C(O)/C=C/C(=O)O [fumarate]
fluorescence emission ratio change of FILLac10N0C (specificity analysis) (FILLac10N0C; 50 μM compound): did not change the emission ratio

[Mg+2] [Mg^2+]
fluorescence emission ratio change of FILLac10N0C (specificity analysis) (FILLac10N0C; 50 μM compound): did not change the emission ratio

O=C(O)C[C@H](O)C(=O)O [L-malate]
fluorescence emission ratio change of FILLac10N0C (specificity analysis) (FILLac10N0C; 50 μM compound): did not change the emission ratio

O=C(O)CC(O)(CC(=O)O)C(=O)O [citrate]
fluorescence emission ratio change of FILLac10N0C (specificity analysis) (FILLac10N0C; 50 μM compound): did not change the emission ratio

OC[C@H]1OC(O)[C@H](O)[C@@H](O)[C@@H]1O (stereo partly shown) [glucose]
fluorescence emission ratio change of FILLac10N0C (specificity analysis) (FILLac10N0C; 50 μM compound): did not change the emission ratio

O=C(O)CCC(=O)C(=O)O [2-ketoglutarate]
fluorescence emission ratio change of FILLac10N0C (specificity analysis) (FILLac10N0C; 50 μM compound): did not change the emission ratio

C[C@H](O)C(=O)O [L-lactate]
change in Tm (ΔTm) of EcLldR (EcLldR): significant changes in Tm | change in Tm (ΔTm) of PaLldR (PaLldR): significant changes in Tm | change in Tm (ΔTm) of PfLldR (PfLldR): significant changes in Tm

N[C@@H](CCC(=O)O)C(=O)O [L-glutamate]
fluorescence emission ratio change of FILLac10N0C (specificity analysis) (FILLac10N0C; 50 μM compound): did not change the emission ratio

[K+] [K^+]
fluorescence emission ratio change of FILLac10N0C (specificity analysis) (FILLac10N0C): did not change the emission ratio

CC(=O)O [acetate]
fluorescence emission ratio change of FILLac10N0C (specificity analysis) (FILLac10N0C; 50 μM compound): did not change the emission ratio

C[C@@H](O)C(=O)O [D-lactate]
change in Tm (ΔTm) of EcLldR (EcLldR): significant changes in Tm | change in Tm (ΔTm) of PaLldR (PaLldR): significant changes in Tm | change in Tm (ΔTm) of PfLldR (PfLldR): significant changes in Tm

O=C(O)/C=C(/CC(=O)O)C(=O)O [cis-aconitate]
fluorescence emission ratio change of FILLac10N0C (specificity analysis) (FILLac10N0C; 50 μM compound): did not change the emission ratio

O=C(O)CC(=O)C(=O)O [oxaloacetate]
fluorescence emission ratio change of FILLac10N0C (specificity analysis) (FILLac10N0C; 50 μM compound): did not change the emission ratio

N [NH4^+]
fluorescence emission ratio change of FILLac10N0C (specificity analysis) (FILLac10N0C; 50 μM compound): did not change the emission ratio

O=CC(=O)O [glyoxylate]
fluorescence emission ratio change of FILLac10N0C (specificity analysis) (FILLac10N0C; 50 μM compound): did not change the emission ratio

O=C(O)C[C@@H](O)C(=O)O [D-malate]
fluorescence emission ratio change of FILLac10N0C (specificity analysis) (FILLac10N0C; 50 μM compound): did not change the emission ratio

O=C(O)CC[C@H](O)C(=O)O [L-2-hydroxyglutarate]
fluorescence emission ratio change of FILLac10N0C (specificity analysis) (FILLac10N0C; 50 μM compound): did not change the emission ratio

CC(=O)C(=O)O [pyruvate]
fluorescence emission ratio change of FILLac10N0C (specificity analysis) (FILLac10N0C; 50 μM compound): did not change the emission ratio | effect on detection of L-lactate by FILLac10N0C (FILLac10N0C; 50 μM of the compound present in the L-lactate dose-response): not affected

O=C(O)CC[C@@H](O)C(=O)O [D-2-hydroxyglutarate]
fluorescence emission ratio change of FILLac10N0C (specificity analysis) (FILLac10N0C; 50 μM compound): did not change the emission ratio

[Ca+2] [Ca^2+]
fluorescence emission ratio change of FILLac10N0C (specificity analysis) (FILLac10N0C; 50 μM compound): did not change the emission ratio
